How the values were obtained:
[1] = system: TNF/zVAD induced temperature loss in mice; experiment: TNF-driven systemic inflammatory response syndrome model using TNF plus zVAD (temperature loss); format: in vivo, mouse
[2] = system: mouse L929 fibrosarcoma cells; experiment: necroptosis assay in L929 cells; format: cell-based; settings: viability by cellular ATP (Cell Titer-Glo), read-out: mean pIC50, inhibition of necrosis in L929 cells (converted)
Method: The efficacy of RIP1 inhibitors can be tested […] in vitro using a human monocytic leukemia U937 or mouse L929 fibrosarcoma cells in a necroptosis assay. As determined using the method described in He, S. et al. 2009. Cell 137(6):1100-1111 and International Patent Appln. No. PCT/IB2014/059004, now, International Patent Appln. Pub.
Viability was measured by quantitating cellular levels of ATP using the Cell Titer-Glo kit. All data are means±standard deviation of the mean.

RIP1 kinase [3] = target: T1, RIP1 kinase (Homo sapiens, UniProt Q13546); experiment: fluorescent polarization based binding assay; settings: mean value, minimum of 2 experiments
T1 sequence (Q13546 1-375 limits assumed): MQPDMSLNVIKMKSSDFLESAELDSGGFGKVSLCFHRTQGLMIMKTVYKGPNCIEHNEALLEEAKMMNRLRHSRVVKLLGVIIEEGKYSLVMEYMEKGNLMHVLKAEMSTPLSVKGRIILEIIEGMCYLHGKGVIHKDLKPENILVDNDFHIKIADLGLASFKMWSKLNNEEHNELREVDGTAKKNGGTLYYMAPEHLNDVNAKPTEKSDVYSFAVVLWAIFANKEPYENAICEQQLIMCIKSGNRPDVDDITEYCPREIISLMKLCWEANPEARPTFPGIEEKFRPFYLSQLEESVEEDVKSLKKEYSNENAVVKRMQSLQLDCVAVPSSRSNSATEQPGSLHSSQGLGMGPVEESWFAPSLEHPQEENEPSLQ
From the text: A fluorescent polarization based binding assay was used to asses the activity of the compounds of this invention, the details of which are disclosed in International Patent Appln. No. PCT/IB2014/059004, now, International Patent Appln. Pub.

[4] = system: TNF induced temperature loss in mice; experiment: TNF (alone) version of the systemic inflammatory response syndrome model (temperature loss); format: in vivo, mouse
From the text: The model can be run in a long modality (using TNF alone i.v.) which results in the termination of the study in ˜8 hrs (under IACUC guidelines for temperature loss). […] All data are shown as means±standard error of the mean.

[5] = background statement; cited from earlier work
RIP1 kinase [6] = settings: ischemic brain injury, retinal ischemia/reperfusion injury, Huntington's disease, renal ischemia reperfusion injury, cisplatin induced kidney injury, traumatic brain injury; cited from earlier work

**Q.** Which “% Inhibition” value ([1]; 20 mg/kg IP, pre-dosed 15 minutes before i.v. mouse TNF (30 μg/mouse) and zVAD (0.4 mg/mouse)) does the source give for `CC(C)(C)C(=O)N1N=CC[C@H]1c1ccccc1` [Example 13, (S)-2,2-dimethyl-1-(5-phenyl-4,5-dihydro-1H-pyrazol-1-yl)propan-1-one] here?
**A.** The value was 80%.

**Q.** What about the IC50 [2] of the same compound?
**A.** Its IC50 is roughly 5.01 nM.

**Q.** Which “% Inhibition” value ([1]; 0.5 mg/kg IP, pre-dosed 15 minutes before i.v. mouse TNF and zVAD) does the source give for `CC(C)(C)C(=O)N1N=CC[C@H]1c1ccccn1` [Example 48, (S)-2,2-dimethyl-1-(5-(pyridin-2-yl)-4,5-dihydro-1H-pyrazol-1-yl)-propan-1-one] here?
**A.** The value was 17%.

**Q.** And the “% Inhibition” value ([1]; 5 mg/kg IP, pre-dosed 15 minutes before i.v. mouse TNF and zVAD)?
**A.** Its value is 52%.

**Q.** What about the “% Inhibition” value ([1]; 50 mg/kg IP, pre-dosed 15 minutes before i.v. mouse TNF and zVAD) of the same compound?
**A.** The value was 91%.

**Q.** What about the IC50 [2] of the same compound?
**A.** Its IC50 is roughly 200 nM.

**Q.** Which “% Inhibition” value ([1]; 0.1 mg/kg IP, pre-dosed 15 minutes before i.v. mouse TNF and zVAD) does the source give for `CC(C)(C)C(=O)N1N=CC[C@H]1c1ccc(Cl)cc1` [Example 66, (S)-1-(5-(4-chlorophenyl)-4,5-dihydro-1H-pyrazol-1-yl)-2,2-dimethyl-propan-1-one] here?
**A.** Its value is 52%.

**Q.** And the IC50 [2]?
**A.** The IC50 was roughly 0.00158 nM.

**Q.** For `CC(=O)N1CCC(C(=O)N2N=CC[C@H]2c2cc(F)cc(F)c2)CC1` [Example 203, (S)-1-(4-(5-(3,5-difluorophenyl)-4,5-dihydro-1H-pyrazole-1-carbonyl)piperidin-1-yl)ethanone], which IC50 (RIP1 kinase [3]) is on record?
**A.** The IC50 was roughly 31.6 nM.

**Q.** And the “% Inhibition” value ([1]; 1 mg/kg PO, pre-dosed 15 minutes before i.v. mouse TNF and zVAD)?
**A.** The value was 9%.

**Q.** What about the “% Inhibition” value ([1]; 10 mg/kg PO, pre-dosed 15 minutes before i.v. mouse TNF and zVAD) of the same compound?
**A.** Its value is 46%.

**Q.** And the “% Inhibition” value ([1]; 100 mg/kg PO, pre-dosed 15 minutes before i.v. mouse TNF and zVAD)?
**A.** Its value is 88%.

**Q.** And the “% Inhibition” value ([4]; 1 mg/kg orally pre-dosed 15 minutes before i.v. mouse TNF (30 μg/mouse) alone)?
**A.** Its value is −14%.

**Q.** And the “% Inhibition” value ([4]; 10 mg/kg orally pre-dosed 15 minutes before i.v. mouse TNF alone)?
**A.** The value was 45%.

**Q.** And the “% Inhibition” value ([4]; 100 mg/kg orally pre-dosed 15 minutes before i.v. mouse TNF alone)?
**A.** Its value is 86%.

**Q.** Which results are given for `CN1C(=O)C(Cc2c[nH]c3ccccc23)NC1=S` (centres unmarked) [Necrostatin-1]?
**A.** oral bioavailability [5]: poor; effectiveness in alleviating disease (RIP1 kinase [6]): effective
